Laboratory results: patent US11590117B2, “Treatment of a hematologic malignancy with 2-(4-chlorophenyl)-n-((2-(2,6-dioxopiperidin-3-yl)-1-oxoisoindolin-5-yl)methyl)-2,2-difluoroacetamide” (priority 2016, dated 2023)
Several values for one entry are separate records, joined by “and”; a condition that tells them apart may be missing. Equal entries are not always repeated. Where two headings read alike, the source gives them in different places.

Columns and labels:
[1] = tested on: CFU-GM (granulocyte/monocyte progenitors); experiment: Colony forming assay, bone marrow CD34+ cells in MethoCult; type: cell-based, human
Description: (§1) Experimental design: human bone marrow (BM) CD34+ cells were used to evaluate the potential for BM toxicity induced by Compound 1. In order to test the effects of Compound 1 on the functionality of hematopoietic progenitors, colony forming assays were done by seeding BM CD34+ cells on MethoCult medium. Cells were seeded directly in MethoCult with Compound 1 or cultured in liquid medium with Compound 1 for 2, 4, or 8 hours and then seeded in compound-free MethoCult to evaluate the effect of different exposure times. Early apoptosis induced by Compound 1 on HSC was analyzed by flow cytometry.
(§2) Results. Colony forming units (CFU) of common granulocyte/erythrocyte/monocyte/megakaryocyte (CFU-GEMM), CFU of granulocyte/monocyte (CFU-GM), burst forming unit of erythrocytes (BFU-E), and CFU of erythrocytes (CFU-E) in cultures exposed to Compound 1 or DMSO were scored on STEMvision.
(§3) Bone marrow CD34+ cells from normal donors were incubated with Compound 1 in MethoCult medium. Colony numbers for CFU-GM and BFU-E progenitors were counted using STEMVision automatic colony counting instrument and software and normalized to the colony number of the DMSO control. Results plotted as percentage of DMSO control vs concentration of Compound 1 were used to determine IC50 values. Data are shown as mean standard error of the mean of n=3 technical replicates. Donors were HD10, HD14, HD18, and HD19.
(§4) FIGS. 33A and 33B provide, colony numbers after preincubation of bone marrow CD34+ cells with Compound 1 for 4 or 8 hours, respectively, in Iscove's medium, followed by incubation in MethoCult medium without Compound 1 for 14 days. FIG. 33C provides colony numbers after incubation of bone marrow CD34+ cells in MethoCult medium in continuous presence of Compound 1 for 14 days.

[2] = tested on: HNT-34 cells and PBMCs; experiment: Flow cytometry caspase 3/7 assay; type: cell-based, human; settings: HNT-34 cells over non-pre-activated PBMCs; 0.1 μM Compound 1; 72 hours
Description: Cell Apoptosis Assays: The ability of Compound 1 to induce apoptosis was assessed in selected AML cell lines and healthy PBMCs at the time points and compound concentrations indicated. For Annexin V/7-AAD readout by flow cytometry, AML cell lines were plated into flat bottom 96-well plates (BD Falcon) at a seeding density of 0.1 to 0.3×10^6 cells per mL in 200 μL complete media. Compound 1 was dispensed onto the plates and the cells were incubated for the times indicated. For frozen PBMCs, cells were thawed as previously described and plated at a seeding density of 1×10^6 cells per mL in 200 μL on Corning® BioCoat™ T-Cell Activation Anti-Human CD3 96-well plates (Corning Inc., Corning, N.Y.). Compound 1 was dispensed onto the plates and the cells were incubated for the times indicated. […] One hundred microliters of Annexin V/7-AAD buffer was added per well and the cells incubated for 15 minutes before being analyzed using the Attune Flow Cytometer (Life Technologies, Carlsbad, Calif.). For caspase 3/7 activity, the remaining 100 μL was incubated with CellEvent™ Caspase-3/7 Green ReadyProbes® Reagent (1:1000 dilution; Molecular Probes) for 15 minutes before being analyzed using the Attune Flow Cytometer. […]
The effects of Compound 1 in healthy PBMCs were also assessed. Compound 1 was added to PBMC s from one donor at time zero and assessed at 72 hours. […]

[3] = tested on: BFU-E (erythroid progenitors); experiment: cells; type: cell-based, human; settings: for IC50: Homo sapiens
Description: as §1, §2, §3, §4

[4] = tested on: Chronic Lymphocytic Leukemia patient samples; experiment: CellTiter-Glo (CTG) cell proliferation assay, 72 hours; type: cell-based; settings: Homo sapiens, Chronic Lymphocytic Leukemia patient samples (n = 3)
Description: Table, Table 2 and Table 3. Human normal donor PBMCs and chronic lymphoid leukemia (CLL) patient blasts were obtained from AllCells, LLC (Alameda, Calif.).
Preparation of Solutions of Test Article: Compounds were plated into black 384-well plates (Corning Inc.) to a final DMSO volume of 0.1% assuming a maximal volume of 50 μL. A 10-point dose response starting at 10 μM with a 1:3 dilution was printed in duplicate by acoustic dispense using the EDC ATS-100 platform.
Cell Proliferation Assays: The effect of Compound 1 on the proliferation/viability of the hematological cell lines (Table 1 Table, Table 2 and Table 3), THLE-2, or PBMCs was assessed after 72 hours incubation using CTG (Promega), according to manufacturer's instructions. Hematological cell lines were dispensed into compound plates by a Multidrop™ Combi Reagent Dispenser (Thermo Scientific, Waltham, Mass.) at a concentration of 0.1 to 0.3×10^6 cells per mL in a 50 μL total volume. THLE-2 cells were seeded out at 1000 cells per well in 50 μL volume and incubated for 72 hours. At 72 hours, 25 μL per well of CTG was dispensed by a Multidrop™ Combi Reagent Dispenser and adenosine triphosphate (ATP) release by viable cells was measured as relative luminescence units after 30 minutes using the Envision platform.

## O=C1CCC(N2Cc3cc(CNC(=O)C(F)(F)c4ccc(Cl)cc4)ccc3C2=O)C(=O)N1 (centres unmarked) [Compound 1, 2-(4-chlorophenyl)-N-((2-(2,6-dioxopiperidin-3-yl)-1-oxoisoindolin-5-yl)methyl)-2,2-difluoroacetamide]
[1]; Donor HD10, 7.4 nM Compound 1, replicate counts
  Colony Number CFU-GM: 82 and 74
[1]; Donor HD10, 22.2 nM Compound 1, replicate counts
  Colony Number CFU-GM: 71 and 80
[1]; Donor HD10, 67 nM Compound 1, replicate counts
  Colony Number CFU-GM: 48 and 61
[1]; Donor HD10, 200 nM Compound 1, replicate counts
  Colony Number CFU-GM: 2 and 0
[1]; Donor HD10, 600 nM Compound 1, replicate counts
  Colony Number CFU-GM: 0
[1]; Donor HD14, 7.4 nM Compound 1, replicate counts
  Colony Number CFU-GM: 15 and 12
[1]; Donor HD14, 22.2 nM Compound 1, replicate counts
  Colony Number CFU-GM: 16 and 15
[1]; Donor HD14, 67 nM Compound 1, replicate counts
  Colony Number CFU-GM: 6 and 4
[1]; Donor HD14, 200 nM Compound 1, replicate counts
  Colony Number CFU-GM: 0
[1]; Donor HD14, 600 nM Compound 1, replicate counts
  Colony Number CFU-GM: 0
[1]; Donor HD18, 7.4 nM Compound 1, replicate counts
  Colony Number CFU-GM: 59 and 73
[1]; Donor HD18, 22.2 nM Compound 1, replicate counts
  Colony Number CFU-GM: 55 and 62
[1]; Donor HD18, 67 nM Compound 1, replicate counts
  Colony Number CFU-GM: 2 and 6
[1]; Donor HD18, 200 nM Compound 1, replicate counts
  Colony Number CFU-GM: 0
[1]; Donor HD18, 600 nM Compound 1, replicate counts
  Colony Number CFU-GM: 0
[1]; Donor HD19, 7.4 nM Compound 1, replicate counts
  Colony Number CFU-GM: 44 and 70
[1]; Donor HD19, 22.2 nM Compound 1, replicate counts
  Colony Number CFU-GM: 34 and 35
[1]; Donor HD19, 67 nM Compound 1, replicate counts
  Colony Number CFU-GM: 4 and 5
[1]; Donor HD19, 200 nM Compound 1, replicate counts
  Colony Number CFU-GM: 0
[1]; Donor HD19, 600 nM Compound 1, replicate counts
  Colony Number CFU-GM: 0
[1]; Homo sapiens, CFU-GM, CD34+ cells from four healthy donors, Compound 1 in MethoCult, read-out: IC50, inhibition of granulo-monocytic progenitors (CFU-GM)
  IC50: 0.082 to 0.135 µM
[2]
  difference in elevation of caspase 3/7 activity: ~3 fold
[3]; 8 hours exposure, Compound 1 ≥111 nM, donors HD46, HD47, HD48, HD50
  reduction in number of BFU-E colonies: more than 50%
[3]; 8 hours exposure, donors HD46, HD47, HD48, HD50, read-out: individual IC50 values, BFU-E colonies
  IC50: 0.03 to 0.15 µM
[3]; CD34+ cells from four healthy donors, Compound 1 in MethoCult, read-out: IC50, inhibition of erythroid progenitors (BFU-E)
  IC50: 0.032 to 0.131 µM
[4]
  IC50: 0.01 µM
